Experimental findings from PMC10728895, “Stapled Phd Peptides Inhibit Doc Toxin Induced Growth Arrest in Salmonella” (ACS Chemical Biology, 2023) are described below.

Structures are written as SMILES. Positions of bridges follow the written chain, without caps; N, C: chain ends. Non-standard residues stand in square brackets, D forms with d. Residues, ends and D or L forms follow the SMILES beside them. S5 = C=CCCC[C@](C)(N)C(=O)O; Nle = CCCC[C@H](N)C(=O)O

This test has as its system DocSTm toxin. Particulars: DocSTm 5 μM, peptide 50 μM, pH 8.0; average ± SD, replicates 3-48 (Table S3). The method, then:
The thermal shift assay was performed using a Mx3005P qPCR System (Agilent) collecting fluorescence data with a temperature ramp of 25 to 95 °C. Samples were prepared in a buffer containing 20 mM K2HPO4 and 50 mM (NH4)2SO4 at pH 8.0, with a final concentration of recombinant Doc protein at 5 μM and Phd peptides at 50 μM. SYPRO Orange dye (Sigma-Aldrich, 5000X stock in DMSO) was used to monitor protein denaturation in a final concentration of 3×. The final sample volume was 20 μL. Each condition was prepared in triplicate in each independent experiment. The melting curves were plotted using GraphPad Prism 9 (GraphPad Software, USA), and the melting temperatures were obtained by fitting the sigmoidal section of the curves to a Boltzmann sigmoid function. For the calculation of thermal shifts ΔTm, the average melting temperature of free DocSTm toxin as determined in the respective peptide measurement cycles was subtracted from the average melting temperature of DocSTm in the presence of the peptide (Table S3).
In the case of `CCCC[C@H](NC(=O)[C@H](Cc1c[nH]c2ccccc12)NC(C)=O)C(=O)N[C@@H](CC(=O)O)C(=O)N[C@@H](CC(=O)O)C(=O)N[C@@H](CCC(=O)O)C(=O)N[C@@H](Cc1ccccc1)C(=O)N[C@@H](C)C(=O)N[C@@H](C)C(=O)N[C@H](C(=O)N[C@@H](CCCC)C(=O)N[C@@H](CCCNC(=N)N)C(=O)N[C@H](C(=O)N[C@@H](Cc1c[nH]cn1)C(=O)NCC(=O)N[C@@H](CC(N)=O)C(=O)N[C@@H](CCC(=O)O)C(=O)N[C@@H](CC(C)C)C(=O)N[C@@H](CCCNC(=N)N)C(=O)N[C@@H](CCC(=O)O)C(=O)N[C@@H](CC(C)C)C(=O)N[C@@H](C)C(=O)N[C@@H](CC(=O)O)C(=O)N[C@@H](CCCCN)C(=O)O)C(C)C)[C@@H](C)CC` [Peptide 7] (Ac-W[Nle]DDEFAAI[Nle]RVHGNELRELADK-OH), the “Average Tm of DocSTm in the presence of peptide” value (shortened to “Average Tm of DocSTm”) is 70.2 ± 0.3 °C.
For the compound `CCCC[C@H](NC(=O)[C@H](Cc1c[nH]c2ccccc12)NC(C)=O)C(=O)N[C@@H](CC(=O)O)C(=O)N[C@@H](CC(=O)O)C(=O)N[C@@H](CCC(=O)O)C(=O)N[C@@H](Cc1ccccc1)C(=O)N[C@@H](CCCNC(=N)N)C(=O)N[C@@H](C)C(=O)N[C@H](C(=O)N[C@@H](CCCC)C(=O)N[C@@H](C)C(=O)N[C@H](C(=O)N[C@@H](Cc1c[nH]cn1)C(=O)NCC(=O)N[C@@H](CC(N)=O)C(=O)N[C@@H](CCC(=O)O)C(=O)N[C@@H](CC(C)C)C(=O)N[C@@H](CCCNC(=N)N)C(=O)N[C@@H](CCC(=O)O)C(=O)N[C@@H](CC(C)C)C(=O)N[C@@H](C)C(=O)N[C@@H](CC(=O)O)C(=O)N[C@@H](CCCCN)C(=O)O)C(C)C)[C@@H](C)CC` [Peptide 5] (Ac-W[Nle]DDEFRAI[Nle]AVHGNELRELADK-OH), the “Average Tm of DocSTm” value stood at 69.7 ± 0.7 °C.
Turning to `CCCC[C@H](NC(=O)[C@H](Cc1c[nH]c2ccccc12)NC(C)=O)C(=O)N[C@@H](CC(=O)O)C(=O)N[C@@H](CC(=O)O)C(=O)N[C@@H](CCC(=O)O)C(=O)N[C@@H](Cc1ccccc1)C(=O)N[C@@H](C)C(=O)N[C@@H](CCCNC(=N)N)C(=O)N[C@H](C(=O)N[C@@H](CCCC)C(=O)N[C@@H](C)C(=O)N[C@H](C(=O)N[C@@H](Cc1c[nH]cn1)C(=O)NCC(=O)N[C@@H](CC(N)=O)C(=O)N[C@@H](CCC(=O)O)C(=O)N[C@@H](CC(C)C)C(=O)N[C@@H](CCCNC(=N)N)C(=O)N[C@@H](CCC(=O)O)C(=O)N[C@@H](CC(C)C)C(=O)N[C@@H](C)C(=O)N[C@@H](CC(=O)O)C(=O)N[C@@H](CCCCN)C(=O)O)C(C)C)[C@@H](C)CC` [Peptide 6] (Ac-W[Nle]DDEFARI[Nle]AVHGNELRELADK-OH), the “Average Tm of DocSTm” value turned out to be 67.3 ± 1.4 °C.
Regarding `CCCC[C@H](NC(=O)[C@H](Cc1c[nH]c2ccccc12)NC(C)=O)C(=O)N[C@@H](CC(=O)O)C(=O)N[C@@H](CC(=O)O)C(=O)N[C@@H](CCC(=O)O)C(=O)N[C@@H](Cc1ccccc1)C(=O)N[C@@H](C)C(=O)N[C@@H](C)C(=O)N[C@H](C(=O)N[C@@H](CCCC)C(=O)N[C@@H](C)C(=O)N[C@H](C(=O)N[C@@H](Cc1c[nH]cn1)C(=O)NCC(=O)N[C@@H](CC(N)=O)C(=O)N[C@@H](CCC(=O)O)C(=O)N[C@@H](CC(C)C)C(=O)N[C@@H](CCCNC(=N)N)C(=O)N[C@@H](CCCNC(=N)N)C(=O)N[C@@H](CC(C)C)C(=O)N[C@@H](C)C(=O)N[C@@H](CC(=O)O)C(=O)N[C@@H](CCCCN)C(=O)O)C(C)C)[C@@H](C)CC` [Peptide 11] (Ac-W[Nle]DDEFAAI[Nle]AVHGNELRRLADK-OH), the “Average Tm of DocSTm” value stood at 73.5 ± 1.3 °C.
Then `CCCC[C@H](NC(=O)[C@H](Cc1c[nH]c2ccccc12)NC(C)=O)C(=O)N[C@@H](CCCNC(=N)N)C(=O)N[C@@H](CC(N)=O)C(=O)N[C@@H](CCC(N)=O)C(=O)N[C@@H](Cc1ccccc1)C(=O)N[C@@H](CCCNC(=N)N)C(=O)N[C@@H](C)C(=O)N[C@H](C(=O)N[C@@H](CCCC)C(=O)N[C@@H](CCCNC(=N)N)C(=O)N[C@H](C(=O)N[C@@H](Cc1c[nH]cn1)C(=O)NCC(=O)N[C@@]1(C)CCCC=CCCC[C@@](C)(C(=O)N[C@@H](CC(C)C)C(=O)N[C@@H](C)C(=O)N[C@@H](CC(N)=O)C(=O)N[C@@H](CCCCN)C(=O)O)NC(=O)[C@H](CCCNC(=N)N)NC(=O)[C@H](CC(C)C)NC(=O)[C@H](CCC(N)=O)NC1=O)C(C)C)[C@@H](C)CC` [Peptide 25] (Ac-W[Nle]RNQFRAI[Nle]RVHG[S5]QLR[S5]LANK-OH; staple 15-19), with 56.4 ± 3.0 °C; and `CCCC[C@H](NC(=O)[C@H](Cc1c[nH]c2ccccc12)NC(C)=O)C(=O)N[C@@H](CCCNC(=N)N)C(=O)N[C@@H](CC(N)=O)C(=O)N[C@@H](CCC(=O)O)C(=O)N[C@@H](Cc1ccccc1)C(=O)N[C@@H](C)C(=O)N[C@@H](C)C(=O)N[C@H](C(=O)N[C@@H](CCCC)C(=O)N[C@@H](CCCNC(=N)N)C(=O)N[C@H](C(=O)N[C@@H](Cc1c[nH]cn1)C(=O)NCC(=O)N[C@@H](CC(N)=O)C(=O)N[C@@H](CCC(N)=O)C(=O)N[C@@H](CC(C)C)C(=O)N[C@@H](CCCNC(=N)N)C(=O)N[C@@H](CCC(=O)O)C(=O)N[C@@H](CC(C)C)C(=O)N[C@@H](C)C(=O)N[C@@H](CC(N)=O)C(=O)N[C@@H](CCCCN)C(=O)O)C(C)C)[C@@H](C)CC` [Peptide 26] (Ac-W[Nle]RNEFAAI[Nle]RVHGNQLRELANK-OH), with 62.9 ± 0.3 °C; and `CCCC[C@H](NC(=O)[C@H](Cc1c[nH]c2ccccc12)NC(C)=O)C(=O)N[C@@H](CCCNC(=N)N)C(=O)N[C@@H](CC(=O)O)C(=O)N[C@@H](CCC(=O)O)C(=O)N[C@@H](Cc1ccccc1)C(=O)N[C@@H](C)C(=O)N[C@@H](C)C(=O)N[C@H](C(=O)N[C@@H](CCCC)C(=O)N[C@@H](C)C(=O)N[C@H](C(=O)N[C@@H](Cc1c[nH]cn1)C(=O)NCC(=O)N[C@@H](CC(N)=O)C(=O)N[C@@H](CCC(=O)O)C(=O)N[C@@H](CC(C)C)C(=O)N[C@@H](CCCNC(=N)N)C(=O)N[C@@H](CCC(=O)O)C(=O)N[C@@H](CC(C)C)C(=O)N[C@@H](C)C(=O)N[C@@H](CC(=O)O)C(=O)N[C@@H](CCCCN)C(=O)O)C(C)C)[C@@H](C)CC` [Peptide 2] (Ac-W[Nle]RDEFAAI[Nle]AVHGNELRELADK-OH), with 66.4 ± 0.2 °C.
Consider `CCCC[C@H](NC(=O)[C@H](Cc1c[nH]c2ccccc12)NC(C)=O)C(=O)N[C@@]1(C)CCCC=CCCC[C@@](C)(C(=O)N[C@@H](C)C(=O)N[C@H](C(=O)N[C@@H](CCCC)C(=O)N[C@@H](C)C(=O)N[C@H](C(=O)N[C@@H](Cc2c[nH]cn2)C(=O)NCC(=O)N[C@@H](CCCNC(=N)N)C(=O)N[C@@H](CCC(N)=O)C(=O)N[C@@H](CC(C)C)C(=O)N[C@@H](CCCNC(=N)N)C(=O)N[C@@H](CCCNC(=N)N)C(=O)N[C@@H](CC(C)C)C(=O)N[C@@H](C)C(=O)N[C@@H](CCCNC(=N)N)C(=O)N[C@@H](CCCCN)C(=O)O)C(C)C)[C@@H](C)CC)NC(=O)[C@H](Cc2ccccc2)NC(=O)[C@H](CCC(=O)O)NC(=O)[C@H](CC(N)=O)NC1=O` [Peptide 34] (Ac-W[Nle][S5]NEF[S5]AI[Nle]AVHGRQLRRLARK-OH; staple 3-7), for which the “Average Tm of DocSTm” value was found to be 58.9 ± 1.1 °C.
For `CCCC[C@H](NC(=O)[C@H](Cc1c[nH]c2ccccc12)NC(C)=O)C(=O)N[C@@H](CC(N)=O)C(=O)N[C@@]1(C)CCCC=CCCC[C@@](C)(C(=O)N[C@H](C(=O)N[C@@H](CCCC)C(=O)N[C@@H](C)C(=O)N[C@H](C(=O)N[C@@H](Cc2c[nH]cn2)C(=O)NCC(=O)N[C@@H](CCCNC(=N)N)C(=O)N[C@@H](CCC(N)=O)C(=O)N[C@@H](CC(C)C)C(=O)N[C@@H](CCCNC(=N)N)C(=O)N[C@@H](CCCNC(=N)N)C(=O)N[C@@H](CC(C)C)C(=O)N[C@@H](C)C(=O)N[C@@H](CCCNC(=N)N)C(=O)N[C@@H](CCCCN)C(=O)O)C(C)C)[C@@H](C)CC)NC(=O)[C@H](C)NC(=O)[C@H](Cc2ccccc2)NC(=O)[C@H](CCC(=O)O)NC1=O` [Peptide 35] (Ac-W[Nle]N[S5]EFA[S5]I[Nle]AVHGRQLRRLARK-OH; staple 4-8), the “Average Tm of DocSTm” value amounted to 59.9 ± 0.4 °C.
For `CCCC[C@H](NC(=O)[C@H](Cc1c[nH]c2ccccc12)NC(C)=O)C(=O)N[C@@H](CC(=O)O)C(=O)N[C@@H](CC(=O)O)C(=O)N[C@@H](CCC(=O)O)C(=O)N[C@@H](Cc1ccccc1)C(=O)N[C@@H](C)C(=O)N[C@@H](C)C(=O)N[C@H](C(=O)N[C@@H](CCCC)C(=O)N[C@@H](C)C(=O)N[C@H](C(=O)N[C@@H](Cc1c[nH]cn1)C(=O)NCC(=O)N[C@@H](CCCNC(=N)N)C(=O)N[C@@H](CCC(=O)O)C(=O)N[C@@H](CC(C)C)C(=O)N[C@@H](CCCNC(=N)N)C(=O)N[C@@H](CCC(=O)O)C(=O)N[C@@H](CC(C)C)C(=O)N[C@@H](C)C(=O)N[C@@H](CC(=O)O)C(=O)N[C@@H](CCCCN)C(=O)O)C(C)C)[C@@H](C)CC` [Peptide 9] (Ac-W[Nle]DDEFAAI[Nle]AVHGRELRELADK-OH) the value was 72.3 ± 0.4 °C.
